The record followed here is patent US20240327463A1, “ANTIBACTERIAL PRODUCTS” (priority 2017, published 2024).

One assay relates to MRSA ATCC 33591. The conditions noted are these: ATCC 33591. As for the experimental part: (§1) For MIC testing all peptides were dissolved in DMSO (according to the method of L. L. Ling, et al., Nature 2015, 517, 455-459). Bacteria were grown on Mueller Hinton broth (oxoid). All incubations were at 37° C. Dilutions were carried out using Mueller Hinton. 100 μl of autoclaved Mueller Hinton broth was added to wells 2-12 on a 96-well plate. 200 μl of the peptide was added to well one at a concentration of 512 μg/ml. 100 μl of peptide in well one was taken up and pipetted into well two. The mixture was then mixed via pipetting before 100 μl was taken up and pipetted into well three. This process was repeated up to well 11. […] This was repeated three times. The 96-well plates were then incubated for 24 hours. The MIC was determined to be the lowest concentration at which there was no growth visible.

For assay [1], the system named is Bacillus Cereus ATCC 11788. Type of assay: cell-based. As for the experimental part:
(§2) Bacteria were grown on Mueller Hinton broth (oxoid). All incubations were at 37° C. Dilutions were carried out using Mueller Hinton. […] This process was repeated up to well 11. […] This was repeated three times. […] Results are tabulated in the Examples.

Assay [2] relates to Bacillus Subtilis ATCC 6633. The format is cell-based. As for the experimental part: as §2
In a further assay the test system is SE12228. The format is cell-based. As for the experimental part:
as §2

Assay [3] relates to Staphylococcus saprophyticus ATCC 15305. The format is cell-based. The conditions noted are these: ATCC 15305. As for the experimental part: as §2
Assay [4] deals with Staphylococcus saprophyticus ATCC 49453. Type of assay: cell-based. The following applies: ATCC 49453. As for the experimental part: as §2
Assay [5] has as its system Staphylococcus saprophyticus ATCC 49907. Type of assay: cell-based. The conditions noted are these: ATCC 49907. Here is the method: as §2
Assay [6] has as its system Staphylococcus saprophyticus ATCC BAA 750. The format is cell-based. The conditions noted are these: ATCC BAA 750. Here is the method:
as §2

A further assay deals with MRSA ATCC 700699. In words: microbe, parasite or virus in culture. The following applies: ATCC 700699. As for the experimental part:
as §1

The next assay deals with MRSA DM21455 (eye). Briefly: microbe, parasite or virus in culture. The conditions noted are these: DM21455 (eye). As for the experimental part: as §1
The next assay has as its system MRSA DR 42412 (sputum). Briefly: microbe, parasite or virus in culture. The conditions noted are these: DR 42412 (sputum). Here is the method: as §1
Assay [7] concerns Staphylococcus aureus ATCC 29213. In words: microbe, parasite or virus in culture. The following applies: ATCC 29213. As for the experimental part:
as §1

In the next assay the test system is VRE ATCC 29212. Briefly: microbe, parasite or virus in culture. The conditions noted are these: ATCC 29212. As for the experimental part: as §1
A further assay relates to VRE ATCC 700802. Briefly: microbe, parasite or virus in culture. The following applies: ATCC 700802. As for the experimental part: as §1
The next assay has as its system MRSA 1003. Type of assay: cell-based, Staphylococcus aureus. As for the experimental part:
as §2

A further assay relates to VRE 1001. The format is cell-based, Enterococcus faecalis. As for the experimental part:
as §2

Another assay relates to VRE 1002. Type of assay: cell-based, Enterococcus faecalis. As for the experimental part:
as §2

The subject of another assay is VRE 1004. The format is cell-based, Enterococcus faecalis. As for the experimental part:
as §2

Another assay deals with VRE 1008. The format is cell-based, Enterococcus faecalis. As for the experimental part: as §2

In brackets after ≈: the same amount, converted by molar mass. Bridge positions count the residues as written; N and C are the ends. Square brackets hold non-standard residues; d marks the D form. Peptide text beside a SMILES is read from it. ξ: configuration not given here. dNMeF = CN[C@H](Cc1ccccc1)C(=O)O; Ile(3ξ) = CCC(C)[C@H](N)C(=O)O

With `CC[C@@H](C)[C@@H](NC(=O)[C@@H](CCC(N)=O)NC(=O)[C@H](CCCNC(=N)N)NC(=O)[C@@H](NC(=O)[C@@H](Cc1ccccc1)NC)[C@@H](C)CC)C(=O)N[C@H](C(=O)N[C@@H](CO)C(=O)N[C@H]1C(=O)N[C@@H](C)C(=O)N[C@@H](CC(C)C)C(=O)N[C@@H]([C@@H](C)CC)C(=O)O[C@H]1C)[C@@H](C)CC` [Compound 25, Arg3-Leu10-teixobactin] (H-[dNMeF]IR[dQ][dI]IS[dT]ALI; ester 8-C), the “MIC (MRSA)” value against MRSA ATCC 33591 came to 0.125 µg/mL (≈ 0.0984 µM). Moreover, the MIC (in assay [1]; in [2]; with SE12228; in assay [3]; in assay [4]; in assay [5]) was below 0.0625 µg/mL each time. For the same molecule, the MIC in assay [6] is below 0.0625 µg/mL; against MRSA ATCC 700699, 0.5 µg/mL (≈ 0.394 µM); in the assay with MRSA DM21455 (eye), 0.03125 µg/mL (≈ 0.0246 µM); against MRSA DR 42412 (sputum), below 0.0625 µg/mL; in assay [7], 0.25 µg/mL (≈ 0.197 µM); in the assay on VRE ATCC 29212, 0.5 µg/mL (≈ 0.394 µM). The MIC in the assay on VRE ATCC 700802 is 0.5 µg/mL (≈ 0.394 µM); with MRSA 1003, below 0.0625 µg/mL; in the assay on VRE 1001, 0.25 µg/mL (≈ 0.197 µM); against VRE 1002, 0.5 µg/mL (≈ 0.394 µM); with VRE 1004, below 0.0625 µg/mL; with VRE 1008, 0.125 µg/mL (≈ 0.0984 µM).

Consider `CCC(C)[C@@H]1NC(=O)[C@H](C)NC(=O)[C@H](NC(=O)[C@H](CO)NC(=O)[C@@H](NC(=O)[C@H](NC(=O)[C@@H](CCC(N)=O)NC(=O)[C@H](CCCNC(=N)N)NC(=O)[C@@H](NC(=O)[C@@H](Cc2ccccc2)NC)[C@@H](C)CC)[C@H](C)CC)[C@@H](C)CC)[C@H](C)OC(=O)[C@H]([C@@H](C)CC)NC1=O` (some centres unmarked) [Compound 32, Arg3-Ile10-teixobactin] (H-[dNMeF]IR[dQ][dI]IS[dT]A[Ile(3ξ)]I; ester 8-C), for which the “MIC (MRSA)” value against MRSA ATCC 33591 was found to be 0.25 µg/mL (≈ 0.197 µM). The MIC was 0.125 µg/mL (≈ 0.0984 µM) in [1]; below 0.0625 µg/mL in assay [2]; below 0.0625 µg/mL against SE12228; below 0.0625 µg/mL in assay [3]; below 0.0625 µg/mL in assay [4]; below 0.0625 µg/mL in assay [5]. Also, the MIC in assay [6] was below 0.0625 µg/mL; with MRSA ATCC 700699, 1 µg/mL (≈ 0.787 µM); in the assay with MRSA DM21455 (eye) it was 0.25 µg/mL (≈ 0.197 µM); with MRSA DR 42412 (sputum), 0.125 µg/mL (≈ 0.0984 µM); in assay [7] it was 0.5 µg/mL (≈ 0.394 µM); in the assay with VRE ATCC 29212, 1 µg/mL (≈ 0.787 µM). The MIC turned out to be 1 µg/mL (≈ 0.787 µM) in the assay with VRE ATCC 700802; 0.125 µg/mL (≈ 0.0984 µM) with MRSA 1003; 1 µg/mL (≈ 0.787 µM) against VRE 1001; 1 µg/mL (≈ 0.787 µM) against VRE 1002; 1 µg/mL (≈ 0.787 µM) against VRE 1004; 1 µg/mL (≈ 0.787 µM) in the assay on VRE 1008.
